These results are taken from patent publication US4230705A, “6-Phenyl-1,2,4-triazolo[4,3-b]pyridazines and their uses in treating anxiety” (American Cyanamid Company, priority 1976, dated 1980).

Experiment [1] has as its system Clonic Seizures Caused By Pentylenetetrazole. Description: Protection against clonic seizures caused by pentylenetetrazole in rats. In kind it is in vivo. The note with it: Rattus norvegicus; oral, 2% starch vehicle; pentylenetetrazole 21 to 23 mg./kg. intravenously at estimated time of peak effect; protection of 50% of rats; read-out: Medium Effective Oral Dose mg./kg. ED50 (converted). How it is done:
The anti-anxiety properties of the novel compounds of the present invention have been established in a test which indicates anxiolytic activity by the measure of protection from convulsions resulting from the administration of pentylenetetrazole. Graded dose levels of the compounds of this invention were administered orally, in a 2% starch vehicle, to groups of at least 5 rats. At the estimated time of peak effect, the rats were treated intravenously with pentylenetetrazole at a dose of 21 to 23 mg./kg. of body weight. This dose is estimated to cause clonic seizures in 99% of unprotected rats. The effective dose (ED50) of the test compound for protection of 50% of the animals is calculated by the method of D. H. Finney in "Statistical Methods in Biological Assay", Second Edition, Hafner Publishing Co., New York, 1964, pp. 456-457. Representative results are given in Table I which follows in comparison with chlordiazepoxide or meprobamate, which were tested in exactly the same manner. It has been reported [R. T. Hill and D. H. Tedeschi, "Animal Testing and Screening Procedures in Evaluating Psychotropic Drugs" in "An Introduction to Psychopharmacology", Eds. R. R. Rech and K. E. Moore, Raven Press, New York, pp. 237-288 (1971)] that there is a high degree of correlation between antagonism of pentylenetetrazole seizures in rats and anti-anxiety effects in higher warm-blooded animals.

For experiment [2], the system named is conflict situation in rats. Description: Non-conditioned passive avoidance (conflict) procedure in rats. The note with it: Rattus norvegicus; oral, 2% starch vehicle; 9 or more shocks in 5 minute test period; rats deprived of water 48 hours and food 24 hours; read-out: Median Effective Dose (ED50 mg./kg.). In kind it is in vivo, Sprague-Dawley rats. The method, then: Another test which has been used to assess anti-anxiety effects is a non-conditioned passive avoidance procedure described by J. R. Vogel, B. Beer and D. E. Clody, "A Simple and Reliable Conflict Procedure for Testing Anti-Anxiety Agents", Psychopharmacologia, Vol. 21, pp. 1-7 (1971). A conflict situation is induced in rats by a modification of this method. To groups of six naive Sprague-Dawley rats (200-220 grams), previously deprived of water for forty-eight hours and food for 24 hours, are administered graded oral doses of test compound suspended in 2% starch vehicle also containing 2 drops of polyethylene glycol and polysorbate 80, or vehicle alone (controls). At the time of peak effect each rat is placed in a plexiglass box fitted with a drinkometer circuit connected between the stainless steel grid floor and a stainless steel drinking tube inserted in a hole in one of the walls of the box. […] The number of shocks received by the rat during a 5 minute test period is recorded. […]

Molecules are shown by their SMILES.

Regarding `CCCC(C)(COC(N)=O)COC(N)=O` [Meprobamate], the ED50 in experiment [1] was 22 mg/kg.

In the case of `CNC1=Nc2ccc(Cl)cc2C(c2ccccc2)=[N+]([O-])C1` [Chlordiazepoxide], the ED50 was 2.5 mg/kg in experiment [1] and 9.6 mg/kg in experiment [2].

Consider `c1ccc(-c2ccc3nncn3n2)cc1` [6-phenyl-1,2,4-triazolo[4,3-b]pyridazine], for which, in experiment [1], the ED50 was 9.5 mg/kg.

In the case of `Cc1nnc2ccc(-c3ccccc3)nn12` [3-methyl-6-phenyl-1,2,4-triazolo[4,3-b]pyridazine], the results for the ED50 in experiment [1] and in experiment [2] were 3 mg/kg and 100 mg/kg, respectively.
